Target: HER2 (Homo sapiens, UniProt P04626)
Assay: DiscoverX scanELECT competition binding at […]

HER2, sequence (P04626 720-987 limits assumed): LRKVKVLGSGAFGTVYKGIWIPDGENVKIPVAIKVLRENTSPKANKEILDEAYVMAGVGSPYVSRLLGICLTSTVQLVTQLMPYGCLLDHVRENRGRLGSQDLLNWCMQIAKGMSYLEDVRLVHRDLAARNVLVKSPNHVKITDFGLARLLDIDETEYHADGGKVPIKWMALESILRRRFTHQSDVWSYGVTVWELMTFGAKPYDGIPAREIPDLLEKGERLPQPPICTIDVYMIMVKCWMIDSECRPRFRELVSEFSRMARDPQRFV

With `CS(=O)(=O)CCNCc1ccc(-c2ccc3ncnc(Nc4ccc(OCc5cccc(F)c5)c(Cl)c4)c3c2)o1` [lapatinib] the “% control at 1 μM” value was 0.

Source: PMC6110523 (Biochemistry, 2018)
